Data from patent publication US20240358668A1, “METHODS AND CO[…] AM[…] CARD[…] USING (R)-2-AMINO-3-PH[…]” (AXSOME THERAPEUTICS, INC., priority 2021, published 2024).

System: participants with narcolepsy or OSA
Assay: 1-year OLE study: clinical laboratory assessments (total cholesterol, triglycerides, glucose), OLE baseline to week 40
Format: in vivo, human
Method: A 1-year open-label extension (OLE) study was performed with 374 participants to examined whether clinically significant weight loss (≥5%) in this population had favorable effects on biomarkers of cardiovascular risk compared to no such weight loss. The study measured changes in weight and BP (parent study baseline to OLE week 40) and clinical laboratory assessments (OLE baseline to week 40) in participants with narcolepsy (n=124) or OSA (n=250) who received solriamfetol at doses of 75, 150, or 300 mg/d.
We evaluated changes in weight and BP (parent study baseline to OLE week 40) and clinical laboratory assessments (OLE baseline to week 40) in participants with narcolepsy (n=124) or OSA (n=250) from the OLE study.

[1] = Weight loss <5% at Week 40, 75 mg/d
[2] = Weight loss <5% at Week 40, 150 mg/d
[3] = Weight loss <5% at Week 40, 300 mg/d
[4] = Weight loss <5% at Week 40, all doses
[5] = Weight loss ≥5% at Week 40, 75 mg/d
[6] = Weight loss ≥5% at Week 40, 150 mg/d
[7] = Weight loss ≥5% at Week 40, 300 mg/d
[8] = Weight loss ≥5% at Week 40, all doses

For `NC(=O)OC[C@H](N)Cc1ccccc1` [Solriamfetol, (R)-2-amino-3-phenylpropyl carbamate], the “Glucose Change - Wk 40, Mean (SD)” value [1] was −0.1 (3.0) mmol/L, the “Glucose Change - Wk 40, Median” value [1] was 0.2 mmol/L and the “Glucose category High, Week 40” value [1] was 16(76.2) n (%). The “Glucose category Low, Week 40” value [1] was 0 n (%), the “Glucose category Normal, Week 40” value [1] was 5(23.8) n (%) and the “TC Change - Wk 40, Mean (SD)” value [1] was −0.1 (0.7) mmol/L. For the same molecule, the “TC Change - Wk 40, Median” value [1] was 0.2 mmol/L, the “TG Change - Wk 40, Mean (SD)” value [1] was 0.2 (0.9) mmol/L and the “TG Change - Wk 40, Median” value [1] was -0.1 mmol/L. For the same molecule, the “Total cholesterol category High, Week 40” value [1] was 8(38.1) n (%), the “Total cholesterol category Low, Week 40” value [1] was 0 n (%) and the “Total cholesterol category Normal, Week 40” value [1] was 13(61.9) n (%). For the same molecule, the “Triglycerides category High, Week 40” value [1] was 11(52.4) n (%), the “Triglycerides category Low, Week 40” value [1] was 0 n (%) and the “Triglycerides category Normal, Week 40” value [1] was 10(47.6) n (%). The “Glucose Change - Wk 40, Mean (SD)” value [2] was −0.1 (1.1) mmol/L, the “Glucose Change - Wk 40, Median” value [2] was -0.1 mmol/L and the “Glucose category High, Week 40” value [2] was 47(46.1) n (%). The “Glucose category Low, Week 40” value [2] was 0 n (%), the “Glucose category Normal, Week 40” value [2] was 55(53.9) n (%) and the “TC Change - Wk 40, Mean (SD)” value [2] was 0.1 (0.7) mmol/L. For the same molecule, the “TC Change - Wk 40, Median” value [2] was 0.1 mmol/L, the “TG Change - Wk 40, Mean (SD)” value [2] was −0.1 (1.0) mmol/L and the “TG Change - Wk 40, Median” value [2] was -0.0 mmol/L. For the same molecule, the “Total cholesterol category High, Week 40” value [2] was 46(44.2) n (%), the “Total cholesterol category Low, Week 40” value [2] was 0 n (%) and the “Total cholesterol category Normal, Week 40” value [2] was 58(55.8) n (%). The “Triglycerides category High, Week 40” value [2] was 39(37.5) n (%), the “Triglycerides category Low, Week 40” value [2] was 0 n (%) and the “Triglycerides category Normal, Week 40” value [2] was 65(62.5) n (%). For the same molecule, the “Glucose Change - Wk 40, Mean (SD)” value [3] was −0.1 (1.9) mmol/L, the “Glucose Change - Wk 40, Median” value [3] was 0.0 mmol/L and the “Glucose category High, Week 40” value [3] was 69(48.9) n (%). For the same molecule, the “Glucose category Low, Week 40” value [3] was 0 n (%), the “Glucose category Normal, Week 40” value [3] was 72(51.1) n (%) and the “TC Change - Wk 40, Mean (SD)” value [3] was 0.1 (0.6) mmol/L. The “TC Change - Wk 40, Median” value [3] was 0.100 mmol/L, the “TG Change - Wk 40, Mean (SD)” value [3] was 0.0 (0.7) mmol/L and the “TG Change - Wk 40, Median” value [3] was -0.1 mmol/L. The “Total cholesterol category High, Week 40” value [3] was 46(31.9) n (%), the “Total cholesterol category Low, Week 40” value [3] was 0 n (%) and the “Total cholesterol category Normal, Week 40” value [3] was 98(68.1) n (%). The “Triglycerides category High, Week 40” value [3] was 50(34.7) n (%), the “Triglycerides category Low, Week 40” value [3] was 0 n (%) and the “Triglycerides category Normal, Week 40” value [3] was 94(65.3) n (%). The “Glucose Change - Wk 40, Mean (SD)” value [4] was −0.1 (1.8) mmol/L, the “Glucose Change - Wk 40, Median” value [4] was -0.0 mmol/L and the “Glucose category High, Week 40” value [4] was 132(50.0) n (%). The “Glucose category Low, Week 40” value [4] was 0 n (%), the “Glucose category Normal, Week 40” value [4] was 132(50.0) n (%) and the “TC Change - Wk 40, Mean (SD)” value [4] was 0.1 (0.6) mmol/L. The “TC Change - Wk 40, Median” value [4] was 0.100 mmol/L, the “TG Change - Wk 40, Mean (SD)” value [4] was −0.0 (0.9) mmol/L and the “TG Change - Wk 40, Median” value [4] was -0.0 mmol/L. The “Total cholesterol category High, Week 40” value [4] was 100(37.2) n (%), the “Total cholesterol category Low, Week 40” value [4] was 0 n (%) and the “Total cholesterol category Normal, Week 40” value [4] was 169(62.8) n (%). For the same molecule, the “Triglycerides category High, Week 40” value [4] was 100(37.2) n (%), the “Triglycerides category Low, Week 40” value [4] was 0 n (%) and the “Triglycerides category Normal, Week 40” value [4] was 169(62.8) n (%). For the same molecule, the “Glucose Change - Wk 40, Mean (SD)” value [5] was -0.5 mmol/L, the “Glucose Change - Wk 40, Median” value [5] was -0.5 mmol/L and the “Glucose category High, Week 40” value [5] was 1(100) n (%). For the same molecule, the “Glucose category Low, Week 40” value [5] was 0 n (%), the “Glucose category Normal, Week 40” value [5] was 0 n (%) and the “TC Change - Wk 40, Mean (SD)” value [5] was 1.1 mmol/L. For the same molecule, the “TC Change - Wk 40, Median” value [5] was 1.1 mmol/L, the “TG Change - Wk 40, Mean (SD)” value [5] was 0.3 mmol/L and the “TG Change - Wk 40, Median” value [5] was 0.3 mmol/L. The “Total cholesterol category High, Week 40” value [5] was 0 n (%), the “Total cholesterol category Low, Week 40” value [5] was 0 n (%) and the “Total cholesterol category Normal, Week 40” value [5] was 1(100) n (%). The “Triglycerides category High, Week 40” value [5] was 0 n (%), the “Triglycerides category Low, Week 40” value [5] was 0 n (%) and the “Triglycerides category Normal, Week 40” value [5] was 1(100) n (%). The “Glucose Change - Wk 40, Mean (SD)” value [6] was −0.2 (0.8) mmol/L, the “Glucose Change - Wk 40, Median” value [6] was -0.2 mmol/L and the “Glucose category High, Week 40” value [6] was 7(31.8) n (%). The “Glucose category Low, Week 40” value [6] was 0 n (%), the “Glucose category Normal, Week 40” value [6] was 15(68.2) n (%) and the “TC Change - Wk 40, Mean (SD)” value [6] was 0.2 (0.5) mmol/L. The “TC Change - Wk 40, Median” value [6] was 0.2 mmol/L, the “TG Change - Wk 40, Mean (SD)” value [6] was −0.1 (0.4) mmol/L and the “TG Change - Wk 40, Median” value [6] was -0.2 mmol/L. For the same molecule, the “Total cholesterol category High, Week 40” value [6] was 4(18.2) n (%), the “Total cholesterol category Low, Week 40” value [6] was 0 n (%) and the “Total cholesterol category Normal, Week 40” value [6] was 18(81.8) n (%). For the same molecule, the “Triglycerides category High, Week 40” value [6] was 6(27.3) n (%), the “Triglycerides category Low, Week 40” value [6] was 0 n (%) and the “Triglycerides category Normal, Week 40” value [6] was 16(72.7) n (%). For the same molecule, the “Glucose Change - Wk 40, Mean (SD)” value [7] was −0.2 (1.5) mmol/L, the “Glucose Change - Wk 40, Median” value [7] was -0.1 mmol/L and the “Glucose category High, Week 40” value [7] was 19(26.0) n (%). For the same molecule, the “Glucose category Low, Week 40” value [7] was 0 n (%), the “Glucose category Normal, Week 40” value [7] was 54(74.0) n (%) and the “TC Change - Wk 40, Mean (SD)” value [7] was 0.2 (0.6) mmol/L. The “TC Change - Wk 40, Median” value [7] was 0.2 mmol/L, the “TG Change - Wk 40, Mean (SD)” value [7] was −0.3 (1.0) mmol/L and the “TG Change - Wk 40, Median” value [7] was -0.2 mmol/L. The “Total cholesterol category High, Week 40” value [7] was 18(24.7) n (%), the “Total cholesterol category Low, Week 40” value [7] was 0 n (%) and the “Total cholesterol category Normal, Week 40” value [7] was 55(75.3) n (%). The “Triglycerides category High, Week 40” value [7] was 15(20.5) n (%), the “Triglycerides category Low, Week 40” value [7] was 0 n (%) and the “Triglycerides category Normal, Week 40” value [7] was 58(79.5) n (%). The “Glucose Change - Wk 40, Mean (SD)” value [8] was −0.2 (1.4) mmol/L, the “Glucose Change - Wk 40, Median” value [8] was -0.1 mmol/L and the “Glucose category High, Week 40” value [8] was 27(28.1) n (%). The “Glucose category Low, Week 40” value [8] was 0 n (%), the “Glucose category Normal, Week 40” value [8] was 69(71.9) n (%) and the “TC Change - Wk 40, Mean (SD)” value [8] was 0.2 (0.6) mmol/L. For the same molecule, the “TC Change - Wk 40, Median” value [8] was 0.2 mmol/L, the “TG Change - Wk 40, Mean (SD)” value [8] was −0.2 (0.9) mmol/L and the “TG Change - Wk 40, Median” value [8] was -0.2 mmol/L. The “Total cholesterol category High, Week 40” value [8] was 22(22.9) n (%), the “Total cholesterol category Low, Week 40” value [8] was 0 n (%) and the “Total cholesterol category Normal, Week 40” value [8] was 74(77.1) n (%). For the same molecule, the “Triglycerides category High, Week 40” value [8] was 21(21.9) n (%), the “Triglycerides category Low, Week 40” value [8] was 0 n (%) and the “Triglycerides category Normal, Week 40” value [8] was 75(78.1) n (%). For the same molecule, the “percentage of participants with high total cholesterol” value (participants with weight loss, week 40 (baseline 22.3%)) was 22.9%, the “percentage of participants with high triglycerides” value (participants with weight loss, week 40 (baseline 26.6%)) was 21.9% and the “percentage of participants with high serum glucose” value (participants with weight loss, week 40 (baseline 36.6%)) was 28.1%. For the same molecule, the “percentage of participants with high total cholesterol” value (participants without weight loss, week 40 (baseline 32.7%)) was 37.2%, the “percentage of participants with high triglycerides” value (participants without weight loss, week 40 (baseline 37.1%)) was 37.2% and the “percentage of participants with high serum glucose” value (participants without weight loss, week 40 (baseline 43.3%)) was 50%.
